Test results published in PubChem BioAssay AID256 (DTP/NCI, 2004).
Values joined by “and” are separate entries in the source; they are usually repeats but may differ in a detail not shown here. Equal entries are not always repeated. Inconclusive results and toxic doses are left out. Rule for the calls: active = survival T/C of 150% or more; inactive = T/C below 125% in these data.

Test system: CD2F1 mice, L1210 leukemia ip, survival T/C
Experiment: NCI In Vivo Anticancer Drug Screen. Data for tumor model L1210 Leukemia (intraperitoneal) in CD2F1 (CDF1) mice
Conditions: higher = longer survival
Outline: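 Ratio T/C, where T is the treated-group value and C the vehicle-dosed control value, from mice implanted with a transplantable tumor.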

[1] = endpoint: median survival time, dose: 100.0 mg/kg/injection, schedule: Q01DX009 (ip), vehicle: saline
[2] = endpoint: mean survival time, dose: 100.0 mg/kg/injection, schedule: Q01DX009 (ip), vehicle: saline with Tween-80
[3] = endpoint: mean survival time, dose: 400.0 mg/kg/injection, schedule: Q01DX009 (ip), vehicle: saline with Tween-80
[4] = endpoint: mean survival time, dose: 25.0 mg/kg/injection, schedule: Q04DX002 (ip), vehicle: saline with Tween-80
[5] = endpoint: mean survival time, dose: 50.0 mg/kg/injection, schedule: Q04DX002 (ip), vehicle: saline with Tween-80
[6] = endpoint: mean survival time, dose: 100.0 mg/kg/injection, schedule: Q04DX002 (ip), vehicle: saline with Tween-80
[7] = endpoint: mean survival time, dose: 25.0 mg/kg/injection, schedule: Q01DX009 (ip), vehicle: saline
[8] = endpoint: mean survival time, dose: 50.0 mg/kg/injection, schedule: Q01DX009 (ip), vehicle: saline
[9] = endpoint: mean survival time, dose: 100.0 mg/kg/injection, schedule: Q01DX009 (ip), vehicle: saline
[10] = endpoint: mean survival time, dose: 100.0 mg/kg/injection, schedule: Q04DX003 (ip), vehicle: saline with Tween-80
[11] = endpoint: mean survival time, dose: 200.0 mg/kg/injection, schedule: Q01DX009 (ip), vehicle: saline with Tween-80
[12] = endpoint: mean survival time, dose: 400.0 mg/kg/injection, schedule: Q04DX003 (ip), vehicle: saline with Tween-80
[13] = endpoint: mean survival time, dose: 200.0 mg/kg/injection, schedule: Q04DX003 (ip), vehicle: saline with Tween-80

Measured: T/C

NC(N)=NOCC[C@@H](N)C(=O)O
inactive: endpoint: median survival time, dose: 25.0 mg/kg/injection, schedule: Q01DX009 (ip), vehicle: saline 102 % of control | endpoint: median survival time, dose: 50.0 mg/kg/injection, schedule: Q01DX009 (ip), vehicle: saline 101 % of control | [1] 98 % of control | endpoint: median survival time, dose: 200.0 mg/kg/injection, schedule: Q01DX009 (ip), vehicle: saline 103 % of control | endpoint: median survival time, dose: 400.0 mg/kg/injection, schedule: Q01DX009 (ip), vehicle: saline 102 % of control | endpoint: median survival time, dose: 500.0 mg/kg/injection, schedule: Q01DX001 (ip), vehicle: saline 97 % of control | endpoint: median survival time, dose: 750.0 mg/kg/injection, schedule: Q01DX001 (ip), vehicle: saline 96 % of control | endpoint: median survival time, dose: 1000.0 mg/kg/injection, schedule: Q01DX001 (ip), vehicle: saline 84 % of control | endpoint: median survival time, dose: 2500.0 mg/kg/injection, schedule: Q01DX001 (ip), vehicle: saline 97 % of control

CC(=O)N(c1ccccc1)C1CCC2(C)C(=CCC3C2CCC2(C)C(C(C)CCCC(C)C)CCC32)C1 (stereo unspecified)
inactive: endpoint: mean survival time, dose: 100.0 mg/kg/injection, schedule: Q01DX009 (sc), vehicle: steriod suspending solution 96 % of control | endpoint: mean survival time, dose: 100.0 mg/kg/injection, schedule: Q04DX003 (sc), vehicle: steriod suspending solution 95 % of control | endpoint: mean survival time, dose: 200.0 mg/kg/injection, schedule: Q01DX009 (sc), vehicle: steriod suspending solution 102 % of control | endpoint: mean survival time, dose: 200.0 mg/kg/injection, schedule: Q04DX003 (sc), vehicle: steriod suspending solution 93 % of control | endpoint: mean survival time, dose: 400.0 mg/kg/injection, schedule: Q01DX009 (sc), vehicle: steriod suspending solution 102 % of control | endpoint: mean survival time, dose: 400.0 mg/kg/injection, schedule: Q04DX003 (sc), vehicle: steriod suspending solution 96 % of control

CC(C(=O)c1ccccc1)C(c1ccccc1)P(=O)(c1ccccc1)c1ccccc1 (stereo unspecified)
inactive: [2] 102 % of control | [3] 104 % of control

COc1ccc2c(c1O)C1CCCCC13CCN(C)C3C2 (stereo unspecified)
inactive: [4] 96 % of control | [5] 96 % of control | endpoint: mean survival time, dose: 100.0 mg/kg/injection, schedule: Q01DX001 (ip), vehicle: saline with Tween-80 110 % of control | [6] 93 % of control and 97 % of control | endpoint: mean survival time, dose: 200.0 mg/kg/injection, schedule: Q01DX001 (ip), vehicle: saline with Tween-80 98 % of control | endpoint: mean survival time, dose: 400.0 mg/kg/injection, schedule: Q01DX001 (ip), vehicle: saline with Tween-80 100 % of control

CC(C)N1CCC1CO (stereo unspecified)
inactive: [7] 96 % of control | [8] 100 % of control | [9] 94 % of control

Nc1ncnc2c1nc(Br)n2C1OC(CO)C(O)C1O (stereo unspecified)
inactive: [6] 95 % of control | endpoint: mean survival time, dose: 200.0 mg/kg/injection, schedule: Q04DX002 (ip), vehicle: saline with Tween-80 98 % of control | endpoint: mean survival time, dose: 400.0 mg/kg/injection, schedule: Q04DX002 (ip), vehicle: saline with Tween-80 98 % of control

CCOC(=O)N1CCc2cc(OC)c(OC)cc2C1=C(c1ccccc1)c1ccccc1
inactive: [2] 91 % of control | [10] 86 % of control | [11] 95 % of control | [3] 88 % of control | [12] 86 % of control

NCCc1ccc(O)c(O)c1
inactive: [7] 97 % of control | [8] 109 % of control | [9] 122 % of control and 109 % of control | endpoint: mean survival time, dose: 200.0 mg/kg/injection, schedule: Q01DX009 (ip), vehicle: saline 112 % of control | endpoint: mean survival time, dose: 400.0 mg/kg/injection, schedule: Q01DX009 (ip), vehicle: saline 119 % of control | endpoint: median survival time, dose: 0.1 mg/kg/injection, schedule: Q01DX009 (ip), vehicle: saline 98 % of control and 107 % of control | endpoint: median survival time, dose: 0.5 mg/kg/injection, schedule: Q01DX009 (ip), vehicle: saline 101 % of control and 107 % of control | endpoint: median survival time, dose: 1.0 mg/kg/injection, schedule: Q01DX009 (ip), vehicle: saline 101 % of control and 107 % of control | endpoint: median survival time, dose: 10.0 mg/kg/injection, schedule: Q01DX009 (ip), vehicle: saline 97 % of control | endpoint: median survival time, dose: 25.0 mg/kg/injection, schedule: Q01DX020 (ip), vehicle: saline 101 % of control | endpoint: median survival time, dose: 50.0 mg/kg/injection, schedule: Q01DX020 (ip), vehicle: saline 109 % of control | endpoint: median survival time, dose: 50.0 mg/kg/injection, schedule: Q04DX002 (ip), vehicle: saline with Tween-80 111 % of control | [1] 113 % of control and 117 % of control | endpoint: median survival time, dose: 100.0 mg/kg/injection, schedule: Q01DX020 (ip), vehicle: saline 115 % of control | endpoint: median survival time, dose: 100.0 mg/kg/injection, schedule: Q04DX002 (ip), vehicle: saline with Tween-80 111 % of control | endpoint: median survival time, dose: 150.0 mg/kg/injection, schedule: Q01DX009 (ip), vehicle: saline 114 % of control | endpoint: median survival time, dose: 200.0 mg/kg/injection, schedule: Q01DX020 (ip), vehicle: saline 115 % of control | endpoint: median survival time, dose: 200.0 mg/kg/injection, schedule: Q04DX002 (ip), vehicle: saline with Tween-80 100 % of control | endpoint: median survival time, dose: 400.0 mg/kg/injection, schedule: Q01DX020 (ip), vehicle: saline 118 % of control | endpoint: median survival time, dose: 400.0 mg/kg/injection, schedule: Q04DX002 (ip), vehicle: saline with Tween-80 100 % of control | endpoint: median survival time, dose: 800.0 mg/kg/injection, schedule: Q01DX020 (ip), vehicle: saline 118 % of control

O=C(O)C(=O)O.[Mn]
inactive: [10] 100 % of control | [13] 100 % of control | [12] 96 % of control

COc1ccc2oc3c(ccc[n+]3C)c(=O)c2c1
inactive: endpoint: median survival time, dose: 60.0 mg/kg/injection, schedule: Q01DX005 (ip), vehicle: saline with Tween-80 104 % of control | endpoint: median survival time, dose: 120.0 mg/kg/injection, schedule: Q01DX005 (ip), vehicle: saline with Tween-80 108 % of control | endpoint: median survival time, dose: 240.0 mg/kg/injection, schedule: Q01DX005 (ip), vehicle: saline with Tween-80 122 % of control

O=S(=O)(O)C1CCC(O)C2[N-]CCCC21.O=S(=O)(O)C1CCC(O)C2[N-]CCCC21.[Zn+2] (stereo unspecified)
inactive: [2] 95 % of control | [10] 96 % of control | [13] 93 % of control | [3] 86 % of control | [12] 96 % of control

O=C(Cc1ccccc1)NC(CSSCC(NC(=O)Cc1ccccc1)C(=O)O)C(=O)O (stereo unspecified)
inactive: [2] 101 % of control | [11] 98 % of control | [3] 93 % of control

CC(C)c1ccc2c(c1)CCC1C(C)(CN)CCCC21C (stereo unspecified) (tested in a mixture with another compound)
inactive: endpoint: mean survival time, dose: 6.25 mg/kg/injection, schedule: Q01DX001 (ip), vehicle: saline with Tween-80 91 % of control | endpoint: mean survival time, dose: 6.25 mg/kg/injection, schedule: Q01DX009 (ip), vehicle: saline with Tween-80 101 % of control | endpoint: mean survival time, dose: 12.5 mg/kg/injection, schedule: Q01DX001 (ip), vehicle: saline with Tween-80 96 % of control | endpoint: mean survival time, dose: 12.5 mg/kg/injection, schedule: Q01DX009 (ip), vehicle: saline with Tween-80 101 % of control | endpoint: mean survival time, dose: 25.0 mg/kg/injection, schedule: Q01DX001 (ip), vehicle: saline with Tween-80 87 % of control | endpoint: mean survival time, dose: 25.0 mg/kg/injection, schedule: Q01DX009 (ip), vehicle: saline with Tween-80 101 % of control

CC(C)C1OC(C(F)(F)F)(C(F)(F)Cl)CC1=O (stereo unspecified)
inactive: endpoint: mean survival time, dose: 100.0 mg/kg/injection, schedule: Q01DX001 (ip), vehicle: Klucel (hydroxypropylcellulose) (HPC) 86 % of control | endpoint: mean survival time, dose: 200.0 mg/kg/injection, schedule: Q01DX001 (ip), vehicle: Klucel (hydroxypropylcellulose) (HPC) 97 % of control | endpoint: mean survival time, dose: 400.0 mg/kg/injection, schedule: Q01DX001 (ip), vehicle: Klucel (hydroxypropylcellulose) (HPC) 98 % of control

CC(=Nc1ccccc1)C1=C(O)C(Cc2ccc(F)cc2)NC1=O (stereo unspecified)
inactive: endpoint: mean survival time, dose: 12.5 mg/kg/injection, schedule: Q04DX002 (ip), vehicle: saline with Tween-80 103 % of control | [4] 100 % of control | [5] 100 % of control
